Here are results for two compounds from patent publication US20090069394A1, “CANCER TREATMENT WITH EPOTHILONES” (priority 2003, published 2009).

The test system of series [1] is Human epidermoid carcinoma KB-8511 cells. Briefly: KB-8511 human tumor xenograft model, loading/maintenance dosage regimens. The series is classed as in vivo, BALB/c nude mice. As to the method: 7,11-Dihydroxy-8,8,10,12,16-pentamethyl-3-[1-methyl-2-(2-methylsulfanyl-thiazol-4-yl)-vinyl]-4,17-dioxa-bicyclo[14.1.0]heptadecane-5,9-dione is dissolved in PEG300 and immediately diluted with saline (0.9% w/v NaCl) to the desired final concentration to be administered to mice as. The injected volume is 10 ml/kg i.v. Formulations are prepared immediately before use. Adriablastin/EÊ (Pharmacia and Upjohn) is purchased as a 2 mg/mL solution, and diluted with saline (0.9% NaCl) to prepare the 0.3 mg/mL solution used to treat animals. Taxol. (Bristol-Myers Squibb AG) is purchased as a 6 mg/ml solution, and diluted with saline to prepare the 1.5 mg/ml solution used to treat animals.
Human epidermoid carcinoma KB-8511 cells are obtained from Dr R. M. Baker, Roswell, Park Memorial Institute (Buffalo, N.Y., USA). Because of pgp170 overexpression, these cells are multi-drug resistant (Akiyama, et al 1985). KB-8511 cells are cultured as previously described.
The experimental details of the human tumor xenograft model has been described previously. A maximum of 10 female nude mice are kept under sterile conditions (type III cage, in an OHC zone) with free access to food and water. […] 7,11-Dihydroxy-8,8,10,12,16-pentamethyl-[1-methyl-2-(2-methylsulfanyl-thiazol-4-yl)-vinyl]-4,17-dioxa-bicyclo[14.1.0]heptadecane-5,9-dione is administered i.v. and tumor volumes and body weights are measured twice per week. Tumor volumes are determined by using callipers for measurement of longest (considered as Length) and shortest (considered as Diameter) dimensions of each tumors, and according to the formula Length×Diameter2×δ/6. Tumor growth and body weights are monitored twice weekly. When mentioned, antitumor activity is expressed as TIC % (mean increase of tumor volumes of treated animals divided by the mean increase of tumor volumes of control animals multiplied by 100) and/or as Tumor Regression (Reg %), calculated as ((mean tumor volume at the start of treatment minus mean tumor volume)/mean tumor volume at the start of treatment)×100. […]

Series [2] is described as follows: Tolerability (body weight) in KB-8511 tumor-bearing mice. Format: in vivo, BALB/c nude mice. As for the experimental part: The experimental details of the human tumor xenograft model has been described previously. A maximum of 10 female nude mice are kept under sterile conditions (type III cage, in an OHC zone) with free access to food and water. KB-8511 tumors are established by subcutaneous injection of cells (2×10^6 cells in 100 μL PBS). The resulting tumors (at a size of 700 to 1000 mm3) are passaged in vivo at least 3 times prior to chemotherapy experimentation, and tumor-bearing mice are treated with Adriablastin/EÊ at 3 mg/kg (10 mL/kg) every week, in order to keep high levels of pgp170 expression. Tumor fragments of about 25 mg are implanted subcutaneously into the left flank of the animals with a 13 gauge trocar needle under Forene/EÊ (Abbott, Switzerland) anesthesia. Unless otherwise stated, treatments are always initiated when the mean tumor volume in each group reached 100 mm3. […] 7,11-Dihydroxy-8,8,10,12,16-pentamethyl-[1-methyl-2-(2-methylsulfanyl-thiazol-4-yl)-vinyl]-4,17-dioxa-bicyclo[14.1.0]heptadecane-5,9-dione is administered i.v. and tumor volumes and body weights are measured twice per week. Tumor volumes are determined by using callipers for measurement of longest (considered as Length) and shortest (considered as Diameter) dimensions of each tumors, and according to the formula Length×Diameter2×δ/6. Tumor growth and body weights are monitored twice weekly. […]

On the set-up of series [3]: species or system BALB/c nude mice. The settings on record: mouse, in vivo. As for the experimental part:
BALB/c nude mice bearing KB-8511 xenograft tumors (initial volume of 250 mm3) were treated using various loading and maintenance dosage regimens to probe the validity of such regimens and to validate the predictions obtained with the PK-PD model. […] The kinetics of body weight loss on some of the tested loading and maintenance dosage regimens (L/MDR) were more benign (i.e. less fluctuating) than those observed on the corresponding fixed dosage regimens (FDR). […] It is concluded that the loading and maintenance dosing concept, by taking into account the very slow elimination rate of NVP-ABJ879, appears to represent an alternative dosing schemeunder which this drug can be dosed weekly.

The conditions of series [4]: cited from earlier work.
The subject of series [5] is colorectal, renal, prostatic, pancreatic, gastric and brain cancers. The settings on record: cited from earlier work.

As to `CSc1nc(C=C(C)C2CC3OC3(C)CCCC(C)C(O)C(C)C(=O)C(C)(C)C(O)CC(=O)O2)cs1` (centres unmarked) [7,11-Dihydroxy-8,8,10,12,16-pentamethyl-3-[1-methyl-2-(2-methylsulfanyl-thiazol-4-yl)-vinyl]-4,17-dioxa-bicyclo[14.1.0]heptadecane-5,9-dione], the tumor relapse entry in series [1] (1.5/0.5 mg/kg dosing) was “tumor relapse was observed in some of the animals”. In addition, the “antitumor activity where tolerability improved (dose optimization)” value in series [1] (initial tumor volume 100 mm3, tolerability assessed on body weight change) is on record as “reduced antitumor activity”. Further, the antitumor activity result in series [1] (loading and maintenance 1.5 mg/kg-0.5 mg/kg or 2.1 mg/kg-0.7 mg/kg, weekly i.v., initial tumor volume 250 mm3) is given as “strong antitumor activity”. Further, in series [2] (loading and maintenance 1.5 mg/kg-0.5 mg/kg or 2.1 mg/kg-0.7 mg/kg, weekly i.v.), the “tolerability (stabilization of the body weight loss)” value is reported as “enhanced tolerability”. The “kinetics of body weight loss” value in series [2] (some loading and maintenance dosage regimens (L/MDR) versus corresponding fixed dosage regimens (FDR)) was “more benign”. In addition, in series [3], the elimination rate entry was “very slow”.
With `CC(=O)O[C@H]1C(=O)[C@@]2(C)[C@H]([C@H](OC(=O)c3ccccc3)[C@]3(O)C[C@H](OC(=O)[C@H](O)[C@@H](NC(=O)c4ccccc4)c4ccccc4)C(C)=C1C3(C)C)[C@]1(OC(C)=O)CO[C@@H]1C[C@@H]2O` [TAXOL®, paclitaxel], the solubility in water result in series [4] was “extremely low”. The “clinical activity as a single agent” value in series [5] is on record as “poorly active clinically”.
